Test results: patent publication US8048899B2, “Compounds which selectively modulate the CB2 receptor” (Boehringer Ingelheim International GmbH, priority 2008, dated 2011)
pEC50: −log10 of the molar value.

Molecular target: T1, human CB2R (Homo sapiens, UniProt P34972)
T1 construct: host or cells: CHO cells
Assay: CB2R mediated modulation of cAMP synthesis
Format: cell-based
Conditions: not given
Protocol: B. CB2R Mediated Modulation of cAMP Synthesis:
Compounds of the invention are evaluated for their CB2 agonist or inverse agonistic activity in accordance with the following experimental method.
(§1) CHO cells expressing human CB2R (Euroscreen) are plated at a density of 5000 cells per well in 384 well plates and incubated overnight at 37° C. After removing the media, the cells are treated with test compounds diluted in stimulation buffer containing 1 mM IBMX, 0.25% BSA and 10 uM Forskolin. The assay is incubated for 30 minutes at 37° C. Cells are lysed and the cAMP concentration is measured using DiscoverX-XS cAMP kit, following the manufacturer's protocol. In this setting, agonists will decrease forskolin induced production of cAMP while inverse agonists will further increase forskolin induced production of cAMP. EC50 of agonists are calculated as follows. The maximal amount of cAMP produced by forskolin compared to the level of cAMP inhibited by 1 uM CP55940 is defined as 100%. […] Data is analyzed using a four-parameter logistic model. (Model 205 of XLfit 4.0).

T1 sequence (P34972 whole entry): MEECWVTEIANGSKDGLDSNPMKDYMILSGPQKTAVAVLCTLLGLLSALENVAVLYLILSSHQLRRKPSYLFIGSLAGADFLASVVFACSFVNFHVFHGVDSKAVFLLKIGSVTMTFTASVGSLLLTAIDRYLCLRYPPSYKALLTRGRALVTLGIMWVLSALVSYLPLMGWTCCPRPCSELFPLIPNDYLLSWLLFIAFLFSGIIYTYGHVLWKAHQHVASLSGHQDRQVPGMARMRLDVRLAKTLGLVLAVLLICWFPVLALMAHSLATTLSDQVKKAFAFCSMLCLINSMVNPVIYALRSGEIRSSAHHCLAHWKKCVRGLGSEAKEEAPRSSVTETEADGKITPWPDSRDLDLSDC

Compound | pEC50
CC(C)(C(=O)Nc1cc(C2(CO)CCCCC2)no1)S(=O)(=O)CC1CCC1 | 7.17
CC(C)(C(=O)Nc1cc(C2(CO)CCC2)no1)S(=O)(=O)CC1CCC1 | 7.13
CC(C)CCS(=O)(=O)C(C)(C)C(=O)Nc1cc(C2(CO)CC2)no1 | 7.85
CC[C@H](C)S(=O)(=O)C(C)(C)C(=O)Nc1cc(C2(CO)CCCC2)no1 | 7.09
CC(C)(C(=O)Nc1cc(C2(CO)CCCC2)no1)S(=O)(=O)C1CCCC1 | 7.35
CC(C)(CO)c1cc(NC(=O)C(C)(C)S(=O)(=O)c2ccc(F)cc2)no1 | 7.35
CC(C)(CO)c1cc(NC(=O)C(C)(C)S(=O)(=O)CC2CCC2)no1 | 7.02
CC(C)(CO)c1cc(NC(=O)C(C)(C)S(=O)(=O)c2cccc(F)c2F)no1 | 7.16
COc1ccccc1-c1n[nH]c(NC(=O)C(C)(C)S(=O)(=O)CC2CC2)n1 | 7.82
CC(C)(C(=O)Nc1nc(-c2ccc(O)cc2)n[nH]1)S(=O)(=O)C1CCCC1 | 7.44
CC(C)(C(=O)Nc1nc(-c2ccc(O)cc2)n[nH]1)S(=O)(=O)CC1CCC1 | 7.66
COc1ccc(-c2nnc(NC(=O)C(C)(C)S(=O)(=O)CC3CC3)[nH]2)c(F)c1 | 7.47
COc1ccc(-c2nnc(NC(=O)C(C)(C)S(=O)(=O)C3CCOCC3)[nH]2)c(F)c1 | 7.89
CC(C)(C(=O)Nc1nc(-c2ccccc2O)n[nH]1)S(=O)(=O)C1CCOCC1 | 7.52
CC[C@@H](C)S(=O)(=O)C(C)(C)C(=O)Nc1nnc(-c2ccc(OC)cc2)[nH]1 | 7.08
CC[C@H](C)S(=O)(=O)C(C)(C)C(=O)Nc1nnc(-c2ccc(OC)cc2)[nH]1 | 7.33
CC(C)(C(=O)Nc1nnc(-c2ccc(O)cc2F)[nH]1)S(=O)(=O)C1CCOCC1 | 8.11
CC(C)(C(=O)Nc1nnc(-c2ccc(O)cc2)[nH]1)S(=O)(=O)CC1CC1 | 7.47
COc1ccc(-c2nnc(NC(=O)C(C)(C)S(=O)(=O)CC3CCC3)[nH]2)c(F)c1 | 8.12
CC(C)(C(=O)Nc1nnc(-c2ccc(O)cc2F)[nH]1)S(=O)(=O)CC1CCC1 | 8.03
CC(C)(O)c1cc(NC(=O)C(C)(C)S(=O)(=O)C2CCOCC2)on1 | 7.06
CC(C)(O)c1cc(NC(=O)C(C)(C)S(=O)(=O)CCCC(F)(F)F)on1 | 7.31
CC(C)CCS(=O)(=O)C(C)(C)C(=O)Nc1nnc(C(C)(C)CO)s1 | 7.74
CO[C@H]1CC[C@@H](S(=O)(=O)C(C)(C)C(=O)Nc2cc(C(C)(C)CO)no2)CC1 | 7.24
CC(C)(CO)c1cc(NC(=O)C(C)(C)S(=O)(=O)CC[C@H]2CCOC2)on1 | 8.21
CC(C)(CO)c1cc(NC(=O)C(C)(C)S(=O)(=O)CC[C@@H]2CCOC2)on1 | 7.85
COCC(C)(C)c1cc(NC(=O)C(C)(C)S(=O)(=O)C2CCN(S(C)(=O)=O)CC2)no1 | 8.21
CC(C)(CO)c1cc(NC(=O)C(C)(C)S(=O)(=O)C2CCN(S(C)(=O)=O)CC2)no1 | 7.04
CC(C)(CO)c1nnc(NC(=O)C(C)(C)S(=O)(=O)C[C@H]2CCCCO2)s1 | 7.55

Same assay, conditions: CHO cells expressing human CB2R; inhibition of forskolin-stimulated cAMP synthesis; read-out: CB2 EC50

Compound | pEC50
CC(C)(CO)c1cc(NC(=O)C(C)(C)S(=O)(=O)N2CCC2)on1 | 6.54
CC(C)(CO)c1cc(NC(=O)C(C)(C)S(=O)(=O)CCC(F)(F)F)on1 | 6.98
CCOc1ccc(-c2n[nH]c(NC(=O)C(C)(C)S(=O)(=O)CC3CC3)n2)cc1 | 6.31
COCC(C)(C)c1cc(NC(=O)C(C)(C)S(=O)(=O)CC2CC2)no1 | 6.92
CC(C)(CO)c1cc(NC(=O)C(C)(C)S(=O)(=O)C2CCCC2)no1 | 6.65

Molecular target: T2, human CB1R (Homo sapiens, UniProt P21554)
T2 construct: host or cells: CHO cells
Assay: CB1R mediated modulation of cAMP synthesis
Format: cell-based
Conditions: not given
Protocol: C. CB1R Mediated Modulation of cAMP Synthesis:
Compounds of the invention are evaluated for their CB1 agonist or inverse agonistic activity in accordance with the following experimental method.
as §1, with “CB1R” for “CB2R”

T2 sequence (P21554 whole entry): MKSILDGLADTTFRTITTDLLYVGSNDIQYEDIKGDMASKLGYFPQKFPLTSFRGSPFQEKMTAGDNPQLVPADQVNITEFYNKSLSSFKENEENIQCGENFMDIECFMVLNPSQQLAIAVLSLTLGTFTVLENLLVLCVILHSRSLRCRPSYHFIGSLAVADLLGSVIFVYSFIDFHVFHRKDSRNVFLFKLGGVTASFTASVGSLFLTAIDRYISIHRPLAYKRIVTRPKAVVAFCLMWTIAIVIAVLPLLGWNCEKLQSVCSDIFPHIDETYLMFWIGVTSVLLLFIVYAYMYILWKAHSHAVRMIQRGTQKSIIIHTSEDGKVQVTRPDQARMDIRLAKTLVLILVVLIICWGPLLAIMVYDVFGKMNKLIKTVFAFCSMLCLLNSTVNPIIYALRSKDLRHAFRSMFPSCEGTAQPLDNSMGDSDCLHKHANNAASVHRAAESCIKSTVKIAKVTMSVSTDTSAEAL

Compound | pEC50
CC(C)(C(=O)Nc1cc(C2(CO)CCCCC2)no1)S(=O)(=O)CC1CCC1 | < 4.70
CC(C)(C(=O)Nc1cc(C2(CO)CCC2)no1)S(=O)(=O)CC1CCC1 | < 4.30
CC(C)CCS(=O)(=O)C(C)(C)C(=O)Nc1cc(C2(CO)CC2)no1 | < 4.70
CC[C@H](C)S(=O)(=O)C(C)(C)C(=O)Nc1cc(C2(CO)CCCC2)no1 | < 4.70
CC(C)(C(=O)Nc1cc(C2(CO)CCCC2)no1)S(=O)(=O)C1CCCC1 | < 4.70
CC(C)(CO)c1cc(NC(=O)C(C)(C)S(=O)(=O)c2ccc(F)cc2)no1 | < 4.30
CC(C)(CO)c1cc(NC(=O)C(C)(C)S(=O)(=O)CC2CCC2)no1 | < 4.30
CC(C)(CO)c1cc(NC(=O)C(C)(C)S(=O)(=O)c2cccc(F)c2F)no1 | < 4.30
COc1ccccc1-c1n[nH]c(NC(=O)C(C)(C)S(=O)(=O)CC2CC2)n1 | < 4.70
CC(C)(C(=O)Nc1nc(-c2ccc(O)cc2)n[nH]1)S(=O)(=O)C1CCCC1 | < 4.30
CC(C)(C(=O)Nc1nc(-c2ccc(O)cc2)n[nH]1)S(=O)(=O)CC1CCC1 | < 4.30
COc1ccc(-c2nnc(NC(=O)C(C)(C)S(=O)(=O)CC3CC3)[nH]2)c(F)c1 | < 4.30
COc1ccc(-c2nnc(NC(=O)C(C)(C)S(=O)(=O)C3CCOCC3)[nH]2)c(F)c1 | < 4.30
CC(C)(C(=O)Nc1nc(-c2ccccc2O)n[nH]1)S(=O)(=O)C1CCOCC1 | < 4.70
CC[C@@H](C)S(=O)(=O)C(C)(C)C(=O)Nc1nnc(-c2ccc(OC)cc2)[nH]1 | < 4.30
CC[C@H](C)S(=O)(=O)C(C)(C)C(=O)Nc1nnc(-c2ccc(OC)cc2)[nH]1 | < 4.30
CC(C)(C(=O)Nc1nnc(-c2ccc(O)cc2F)[nH]1)S(=O)(=O)C1CCOCC1 | < 4.30
CC(C)(C(=O)Nc1nnc(-c2ccc(O)cc2)[nH]1)S(=O)(=O)CC1CC1 | < 4.30
COc1ccc(-c2nnc(NC(=O)C(C)(C)S(=O)(=O)CC3CCC3)[nH]2)c(F)c1 | < 4.70
CC(C)(C(=O)Nc1nnc(-c2ccc(O)cc2F)[nH]1)S(=O)(=O)CC1CCC1 | 4.46
CC(C)(O)c1cc(NC(=O)C(C)(C)S(=O)(=O)C2CCOCC2)on1 | < 4.30
CC(C)(O)c1cc(NC(=O)C(C)(C)S(=O)(=O)CCCC(F)(F)F)on1 | < 4.70
CC(C)CCS(=O)(=O)C(C)(C)C(=O)Nc1nnc(C(C)(C)CO)s1 | < 4.70
CO[C@H]1CC[C@@H](S(=O)(=O)C(C)(C)C(=O)Nc2cc(C(C)(C)CO)no2)CC1 | < 4.30
CC(C)(CO)c1cc(NC(=O)C(C)(C)S(=O)(=O)CC[C@H]2CCOC2)on1 | < 4.70
CC(C)(CO)c1cc(NC(=O)C(C)(C)S(=O)(=O)CC[C@@H]2CCOC2)on1 | < 4.30
COCC(C)(C)c1cc(NC(=O)C(C)(C)S(=O)(=O)C2CCN(S(C)(=O)=O)CC2)no1 | < 4.30
CC(C)(CO)c1cc(NC(=O)C(C)(C)S(=O)(=O)C2CCN(S(C)(=O)=O)CC2)no1 | < 4.30
CC(C)(CO)c1nnc(NC(=O)C(C)(C)S(=O)(=O)C[C@H]2CCCCO2)s1 | < 4.30

Same assay, conditions: CHO cells expressing human CB1R; inhibition of forskolin-stimulated cAMP synthesis; read-out: CB1 EC50

Compound | pEC50
CC(C)(CO)c1cc(NC(=O)C(C)(C)S(=O)(=O)N2CCC2)on1 | < 4.70
CC(C)(CO)c1cc(NC(=O)C(C)(C)S(=O)(=O)CCC(F)(F)F)on1 | < 4.30
CCOc1ccc(-c2n[nH]c(NC(=O)C(C)(C)S(=O)(=O)CC3CC3)n2)cc1 | < 4.30
COCC(C)(C)c1cc(NC(=O)C(C)(C)S(=O)(=O)CC2CC2)no1 | < 4.30
CC(C)(CO)c1cc(NC(=O)C(C)(C)S(=O)(=O)C2CCCC2)no1 | ≤ 4.30
